Source: US20060116403A1, “Therapeutic target and uses thereof” (priority 2002, published 2006)
Like-named read-outs stand apart in the source and are kept apart here.

Assays:
[1] = tested on: human vascular smooth muscle cells; assay: Proteoglycan core protein synthesis (35S-methionine/cysteine, CPC precipitation); assay type: cell-based
Procedure: (§1) The culture media were collected and each plate rinsed with Dulbecco's PBS (0.25 ml). Aliquots (50 μl) of the media sample were spotted in duplicate on 30×15 mm rectangles of Whatman® 3M chromatography paper (Aldrich, Milwaukee, U.S.A.). The paper was washed five times in a solution containing cetylpyridinium chloride (CPC, 1% w/v) and NaCl (50 mM). Following air drying at room temperature, the paper from each sample was placed in liquid scintillation fluid (Packard, Groningen, The Netherlands) and radioactivity counted in a Beckman Coulter liquid scintillation analyzer (Fullerton, U.S.A). Counts from cells labeled with [^35S]-sulfate and Tran^35SLabel represented total sulfated GAGs and total core protein respectively.
Effects on core protein biosynthesis can be evaluated by metabolically labeling the cells with labeled amino acids (^35S-methionine/cysteine) and using an isolation technique “CPC precipitation” which is specific for isolating proteoglycans. Thus, cells were treated identically to the above experiments but labeled with ^35S-methionine/cysteine. […]. Core protein biosynthesis was stimulated by PDGF (FIG. 5; […].

[2] = tested on: human vascular smooth muscle cells; assay: Size of proteoglycans and cleaved GAG chains by SDS-PAGE; assay type: cell-based; details: for effect on elongation of GAG chains stimulated by PDGF: PDGF treated cells; for effect on size of GAG chains released from proteoglycans, basal: basal (untreated cells); for effect on proteoglycan size (SDS-PAGE): basal and PDGF treated cells, imatinib 1 μM, genistein/daidzein 100 μM
Procedure: DEAE-Sephacel columns were prepared as previously described 19 and were washed with low salt buffer containing 8 M urea, 0.25 M NaCl, 0.02 M disodium EDTA and 0.5% Triton X-100. The media of 3 identical treatments was pooled and applied to the column. The columns were washed with low salt buffer to remove non-proteoglycan associated radioactivity. Fractions were collected with high salt buffer containing 8 M urea, 3 M NaCl, 0.02 M disodium EDTA and 0.5% Triton X-100.
Samples were prepared for SDS-PAGE by set counts so that the amount of radioactivity applied to the gel was the same for each treatment.
Proteoglycans eluted from DEAE columns and precipitated once with ethanol/potassium acetate solution were treated with sodium borohydride (1 M) in NaOH (50 mM) for 4 h at 45° C. to release the GAG chains. The free GAG chains were precipitated with the ethanol/potassium acetate solution and analyzed for size by SDS-PAGE.
For the estimation of apparent relative masses (MrS) ^14C high molecular weight standards (GIBCO BRL, Grand Island, U.S.A) were run in separate lanes.
The labeled proteoglycans, cleaved chains, xyloside-initiated GAGs and standard proteins were exposed (3 days) to a Fujifilm imaging plate (Fuji Photo Film Co., Japan) and the imaging plate scanned by the Bio-imaging analyzer BAS-1000 MacBas (Fuji Photo Film Co., Japan).

[3] = tested on: human vascular smooth muscle cells (internal mammary artery); assay: 35S-sulfate incorporation into total secreted proteoglycans (CPC precipitation); assay type: cell-based; details: for inhibition of PDGF-stimulated component of proteoglycan production: imatinib 1 μM, genistein 100 μM
Procedure: The Human Ethics Committee of the Alfred Hospital and Baker Heart Research Institute approved the acquisition of tissue.
Cells were metabolically labeled with [^35S]-sulfate ([…]) for the final 24 h.
as §1

[4] = tested on: human vascular smooth muscle cells; assay: Xyloside-initiated GAG chain synthesis and size; assay type: cell-based; details: xyloside 0.5 mM; for effect on increase in size of GAG chains on xyloside, PDGF: PDGF treated cells
Procedure: To study glycosaminoglycan (GAG) synthesis, cells were treated with exogenous xyloside which acts as an artificial and alternative substrate for the enzymes which normally catalyze the initiation of GAG chains on the protein core Nigro J et al (2002)) and Moses, J., Oldberg, A. & Fransson, L. A. Initiation of galactosaminoglycan biosynthesis. Separate galactosylation and dephosphorylation pathways for phosphoxylosylated decorin protein and exogenous xyloside. Eur J Biochem 260, 879-84 (1999)) generating free xyloside-initiated GAG chains. β-D-Xylopyranoside (xyloside) (0.5 mM) was prepared in DMEM with FBS (0.1%) and DMSO (0.1%). […] Cells were metabolically labeled with [^35S]-sulfate (50 μCi/well) for 24 hours.
SDS-PAGE gels were prepared following the procedure of Laemelli (Laemmli, U.K. Cleavage of structural proteins during the assembly of the head of bacteriophage T4. Nature 227, 680-5 (1970)) on 4-13% linear gradient separating gels for intact proteoglycans and 4-20% separating gels for cleaved chains and xyloside-initiated GAGs, with a 3.5% stacking gel. For the estimation of apparent relative masses (MrS) ^14C high molecular weight standards (GIBCO BRL, Grand Island, U.S.A) were run in separate lanes.
Cell cultures supplemented with xyloside synthesize the normal family of proteoglycans but also free GAG chains which are synthesized on the xyloside acting as a “false acceptor” for GAG initiation. […] The analysis of the production of the xyloside-initiated GAG chains therefore represents an independent assay of the activity of the GAG elongation process which normally determine the length of GAGs on proteoglycans. […]. GAG chains produced on xyloside are considerably smaller than free GAG chains synthesized on and released from proteoglycans (compare FIG. 2 right panel with FIG. 3 lower panel). The band at the bottom of the SDS-PAGE is the GAG chains initiated on xyloside. Genistein and daidzein have no effect on the size of the GAGs either under basal or PDGF stimulated conditions. […].

cAbl kinase = cAbl kinase (Homo sapiens, UniProt P00519); assay: Direct assay of cAbl kinase activity; assay type: biochemical
Procedure: The direct cAbl kinase inhibitory activity of several compounds was evaluated.

[5] = tested on: vascular smooth muscle cells; details: cited from earlier work
human LDL [6] = assay: LDL affinity chromatography of radiolabeled proteoglycans; assay type: cell-based; details: for effect on increased LDL binding of proteoglycans from PDGF treated cells: PDGF 50 ng/ml, imatinib 1 μM, genistein 100 μM
Procedure: Human blood samples were obtained from healthy subjects. LDL (d=1.019−1.063 g/ml) was purified from blood by sequential density gradient ultracentrifugation as described by Heinecke, J. W., Baker, L., Rosen, H. & Chait, A. Superoxide-mediated modification of low density lipoprotein by arterial smooth muscle cells. J Clin Invest 77, 757-61 (1986). The interaction of total pooled intact proteoglycan preparations with native human LDL was assessed using LDL affinity chromatography, providing a measure of binding capacity. […] Sepharose was prepared in the presence of excess heparin to protect the GAG binding sites. The columns were washed with HEPES buffer above and then with 1M NaCl to remove heparin. Each sample (80,000 cpm) was applied to a separate column. The columns were washed extensively with low salt buffer then eluted (5×0.5 ml) with 1M NaCl to elute bound proteoglycans. Finally the columns were stripped with high salt, high urea buffer. The aggregate radioactivity retained by the LDL column after extensive washing and eluted with 1M NaCl was determined as the binding capacity for the column.
We observed a 36% increase in the binding capacity of proteoglycans in PDGF treated cells compared to untreated cells (FIG. 5).

K562 cells = assay: Inhibition of K562 cell proliferation; assay type: cell-based
Excerpt: K562 cells are Philadelphia chromosome tumour cells in which constitutively active cAbl (but possibly other pathways) drive the cell proliferation. […] These cells provide an assay to discriminate inhibition of tyrosine kinases in a whole cell assay.

human LDL [7] = assay: Gel Mobility Shift Assay of core protein labelled proteoglycans binding to human LDL
Procedure: A new approach to these studies is now used in which the proteoglycan core proteins are metabolically radio-labelled and used to study the binding of human LDL. Cells are incubated with Translabel® (ICN Biochemicals) (^35S-methioinine and cysteine amino acids) and the amino acids are incorporated into the core proteins.
Core protein labelled proteoglycans were isolated by DEAE sepharose ion exchange chromatography and then the binding to human LDL was studied in a Gel Mobility Shift Assay in which a set amount of radiolabeled proteoglycan is incubated with various amounts of LDL and then the bound and free proteoglycans are separated on a flat bed agarose gel.

[8] = tested on: saphenous vein vascular smooth muscle cells; details: saphenous vein VSMC
Procedure: Cultures of vascular smooth muscle cells from human saphenous veins samples obtained (with Ethics approval) from Cardiac Theatres at the Alfred Hospital were prepared.

[9] = tested on: vascular smooth muscle cells; assay: Sepharose 6B size exclusion chromatography of cleaved GAG chains; assay type: cell-based, human
[10] = tested on: vascular smooth muscle cells; assay: 35S-sulphate incorporation into proteoglycans, cAbl siRNA transfection compared with imatinib; assay type: cell-based, human; details: culture media
Excerpt: An independent method is available to examine this question by using molecular biology techniques to block the expression of the mRNA for cAbl and thus reduce the actual level of cAbl mRNA, protein and enzyme activity in the cell. A new technique of post-transcriptional gene silencing known as small inhibitory RNA (or siRNA) has recently been developed in which cells are transfected with an siRNA which leads to the breakdown and loss of the target mRNA in this case cAbl RNA. This is a highly specific technique which complements the pharmacological approach. […] Target sequences for siRNA have been identified from the scanning of the coding region of the human c-Abl gene. Four of these potential sites were selected and compared to a genome database to identify any sequence homology to other genes. Following identification of target sequences, sense and anti-sense siRNA oligonucleotide templates are constructed consisting of 21 nucleotides encoding the siRNA and 8 nucleotides complementary to a promoter primer. […] Both sense and anti-sense siRNA oligonucleotide templates were hybridised to a promoter primer. Double stranded siRNA transcription templates was created by extending the hybridised oligonucleotides using the Klenow fragment of DNA polymerase and RNA polymerase used to transcribe the sense and anti-sense siRNA templates which were then hybridised to dsRNA. […]

[11] = Homo sapiens, 24 h, read-out: inhibition of basal proteoglycan production

cAbl kinase, sequence (P00519 whole entry): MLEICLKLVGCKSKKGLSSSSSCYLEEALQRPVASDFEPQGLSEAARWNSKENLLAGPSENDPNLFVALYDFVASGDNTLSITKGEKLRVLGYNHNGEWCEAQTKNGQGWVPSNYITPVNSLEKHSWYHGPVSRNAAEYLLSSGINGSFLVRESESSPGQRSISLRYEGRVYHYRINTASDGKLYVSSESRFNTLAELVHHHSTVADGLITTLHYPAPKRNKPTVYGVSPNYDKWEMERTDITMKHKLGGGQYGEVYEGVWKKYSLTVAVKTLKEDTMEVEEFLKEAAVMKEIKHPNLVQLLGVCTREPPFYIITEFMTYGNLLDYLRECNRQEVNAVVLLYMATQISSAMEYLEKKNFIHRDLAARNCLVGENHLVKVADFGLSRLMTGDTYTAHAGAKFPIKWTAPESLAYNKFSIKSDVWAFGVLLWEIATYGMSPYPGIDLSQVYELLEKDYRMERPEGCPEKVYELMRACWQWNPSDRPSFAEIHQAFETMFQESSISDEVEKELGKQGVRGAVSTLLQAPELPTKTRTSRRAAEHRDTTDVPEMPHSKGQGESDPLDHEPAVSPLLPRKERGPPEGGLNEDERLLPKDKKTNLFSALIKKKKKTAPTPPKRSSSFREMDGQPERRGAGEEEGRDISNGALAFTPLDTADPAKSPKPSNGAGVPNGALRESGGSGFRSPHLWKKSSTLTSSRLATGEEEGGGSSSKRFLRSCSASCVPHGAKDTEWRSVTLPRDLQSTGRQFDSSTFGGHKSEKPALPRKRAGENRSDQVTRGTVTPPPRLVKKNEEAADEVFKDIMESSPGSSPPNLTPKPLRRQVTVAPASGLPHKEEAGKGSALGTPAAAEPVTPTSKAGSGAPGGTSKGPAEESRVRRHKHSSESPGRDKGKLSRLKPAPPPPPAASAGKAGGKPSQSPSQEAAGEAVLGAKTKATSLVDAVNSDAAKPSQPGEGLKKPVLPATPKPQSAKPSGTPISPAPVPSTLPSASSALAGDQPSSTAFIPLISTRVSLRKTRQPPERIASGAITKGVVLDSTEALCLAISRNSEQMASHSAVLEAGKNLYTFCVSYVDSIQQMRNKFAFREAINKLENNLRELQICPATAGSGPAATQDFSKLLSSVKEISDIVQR

| Compound | effect on PDGF-stimulated core protein biosynthesis [1] | effect on basal proteoglycan core protein biosynthesis [1] | effect on elongation of GAG chains stimulated by PDGF [2] | effect on size of GAG chains released from proteoglycans, basal [2] | effect on proteoglycan size (SDS-PAGE) [2] | effect on combined production of proteoglycans and xyloside-initiated GAG chains [4] | effect on increase in size of GAG chains on xyloside, PDGF [4] | effect on size of GAG chains on xyloside, basal [4] | inhibition of cAbl kinase activity (cAbl kinase) | inhibition of PDGF-stimulated component of proteoglycan production ([3]; PDGF 50 ng/ml) | effect on increased LDL binding of proteoglycans from PDGF treated cells (human LDL [6]) | other results |
| --- | --- | --- | --- | --- | --- | --- | --- | --- | --- | --- | --- | --- |
| O=c1c(-c2ccc(O)cc2)coc2cc(O)ccc12 [daidzein, 4′,7-dihydroxyisoflavone] | attenuated | considerably less active than genistein | no effect | no effect | no effect | essentially identical | no effect | no effect | little activity | – | – | inhibition of basal proteoglycan production ([3]; basal, daidzein 100 μM): little inhibitory activity |
| O=c1c(-c2ccc(O)cc2)coc2cc(O)cc(O)c12 [genistein, 4′,5,7-trihydroxyisoflavone] | attenuated | reduced | no effect | no effect | no effect | essentially identical | no effect | no effect | little activity | less inhibitory than imatinib | does not prevent | inhibition at 100 µM [3, 11]: 64%; concentration of maximal effect on proteoglycan production ([3]; dose response curves): 100 µM; effect on total proteoglycan production ([5]; Primate VSMC in culture): inhibited; effect on basal expression of versican mRNA and core protein ([5]; basal): almost completely abolishes; effect on GAG length [5]: no effect; potency against cAbl relative to imatinib (times less potent) (cAbl kinase): 160 times; inhibition of K562 cell proliferation (K562 cells): little or no inhibitory activity |
| CO[C@H]1[C@@H](OC)C[C@H](C)[C@@H](OC)C2=CC(=O)C=C(NC(=O)/C(C)=C/C=C\[C@H](OC)[C@@H](OC(N)=O)/C(C)=C/[C@@H]1C)C2=O [herbimycin] | – | – | – | – | – | – | – | – | little activity | – | – | effect on size of GAGs on proteoglycan (SDS-PAGE) ([2]; herbimycin): does not reduce; effect on radiosulfate incorporation into proteoglycans ([3]; herbimycin): does not inhibit; inhibition of cAbl kinase activity (cAbl kinase; listed as Herbimycin): no inhibitory activity |
| Cc1ccc(NC(=O)c2ccc(CN3CCN(C)CC3)cc2)cc1Nc1nccc(-c2cccnc2)n1 [imatinib, 4-[(4-methyl-1-piperazinyl)methyl]-N-[4-methyl-3-[[4-(3-pyridinyl)-2-pyrimidinyl]amino-phenyl]benzamide methanesulfonate] | attenuated | very small but not statistically significant inhibitory effect | – | – | – | essentially identical | completely prevented | slightly reduced | – | totally blocked | completely abolished | inhibition at 1 µM [3, 11]: 56%; decrease in LDL binding affinity (human LDL [7]; basal): three fold; effect on GAG length (SDS-PAGE mobility) [8]: shortens |
| PDGF: human recombinant platelet derived growth factor-BB, growth factor stimulus | – | – | – | – | – | – | – | – | – | – | – | increase of proteoglycan production ([3]; PDGF 50 ng/ml): approximately two-fold; half-maximal saturation concentration of LDL, PDGF stimulated cells (human LDL [7]; PDGF stimulated): 25 µg/mL; increase in LDL binding capacity of proteoglycans (human LDL [6]; PDGF treated cells compared to untreated cells): 36%; Kav of cleaved GAG chains, PDGF stimulated [9]: 0.45 |
| siRNA (MB 61): siRNA directed to cAbl; anti-sense template 5′-AAGAAAAACTTCATCCACAGA-3′, sense template 5′-AATCTGTGGATGAAGTTTTTC-3′ (antisense AAGAAAAACTTCATCCACAGA; sense AATCTGTGGATGAAGTTTTTC; chemistry not given here; the letters are possibly those of the target site) | – | – | – | – | – | – | – | – | – | – | – | reduction in 35S-sulphate incorporation, PDGF cells ([10]; PDGF stimulated): 50%; inhibition of radiosulphate incorporation, control cells ([10]; control cells, 24 h): 30-40% |
